Reference: patent US20240285634A1, “COMPOUND AND METHOD FOR TREATING CHEMOTHERAPY-ASSOCIATED GASTROINTESTINAL SIDE EFFECTS” (ONQUALITY PHARMACEUTICALS CHINA LTD., priority 2021, published 2024)

Tested on: Chemotherapeutic agent-caused constipation models of Balb/c mice
Assay: Relieving effect on constipation caused by a chemotherapeutic agent (Examples 202-364)
Type: in vivo
Source text: Construction of mouse animal models: Chemotherapeutic agent-caused constipation models of Balb/c mice were constructed according to the administration mode and frequency of the chemotherapeutic agent as shown in Table 4. […] Thus, chemotherapeutic agent-caused constipation models of mice are very good models to mimic constipation caused by the chemotherapeutic agent.
Balb/c mice were fed for 1 week, and then divided into groups. The experiment was divided into a control group, a chemotherapeutic agent group, and a group of the compound as shown in Formula I, each of which comprised 10 mice, to perform the administration experiment, for which the administration dosage, mode, time and frequency were shown in Table 4. The control group: being injected or intragastrically administered with the same solvent as that used in the group of the compound as shown in Formula I (the administration mode and time were shown in Table 4), and then being injected or intragastrically administered with the same solvent as that used in the chemotherapeutic agent group (the administration mode was shown in Table 4); the chemotherapeutic agent group: being injected or intragastrically administered with the same solvent as that used in the group of the compound as shown in Formula I (the administration mode and time was shown in Table 4), and then being injected or intragastrically administered with the chemotherapeutic agent (the type, administration mode and dosage were shown in Table 4); the group of the compound as shown in Formula I: being injected or intragastrically administered with the compound as shown in Formula I (the administration mode and time was shown in Table 4), and then being administered with the chemotherapeutic agent (the administration mode and dosage were shown in Table 4).
The feces reduction rate was calculated with reference to the method of Ji Eun Kim (Lab Anim Res. 2016 December; 32(4): 231-240.). Feces reduction rate (%)=(the control group−the chemotherapeutic agent group or the group of the compound as shown in Formula I)/the control group*100%
It is regarded as effective remission when the feces reduction rate of mice in the group of the compound as shown in Formula I is reduced compared with that in the chemotherapeutic agent group.
The feces amount of mice within 3 hours was observed and recorded every day. At the end of the experiment, the number of mice in the group of the compound as shown in Formula I whose feces reduction rate was lower than that of mice in the chemotherapeutic agent group was recorded. Table 4 lists various animal experiment combinations of chemotherapeutic agents and the compound as shown in Formula I, as well as the corresponding experimental results.

CN1CCN(c2ccc(Nc3ncc4cc5n(c4n3)C3(CCCCC3)CNC5=O)nc2)CC1 [Compound I, Trilaciclib]
0%: Relative remission rate (%) (Example 305, Irinotecan (CPT-11) intraperitoneal injection 260 mg/kg single, compound intravenous injection 150 mg/kg single, 48 h before chemotherapeutic agent, cycle 8 days) | Relative remission rate (%) (Example 314, Fluorouracil 125 (F) and irinotecan 240 (I) mg/kg intravenous injection single, compound intravenous injection 100 mg/kg single, 48 h before chemotherapeutic agent, cycle 10 days) | Relative remission rate (%) (Example 327, Fluorouracil 100 (F) and oxaliplatin 5 (O) and irinotecan 100 (I) mg/kg intraperitoneal injection single, compound intraperitoneal injection 300 mg/kg single, 48 h before chemotherapeutic agent, cycle 8 days) | Relative remission rate (%) (Example 342, Fluorouracil 100 (F), oxaliplatin 5 (O), irinotecan 100 (I) and tetrahydrofolic acid 100 (L) mg/kg intravenous injection single, compound intravenous injection 100 mg/kg single, 48 h before chemotherapeutic agent, cycle 8 days)
70%: Relative remission rate (%) (Example 295, Irinotecan (CPT-11) intraperitoneal injection 260 mg/kg single, compound intravenous injection 150 mg/kg single, 9 h before chemotherapeutic agent, cycle 8 days) | Relative remission rate (%) (Example 312, Fluorouracil 125 (F) and irinotecan 240 (I) mg/kg intravenous injection single, compound intravenous injection 100 mg/kg single, 12 h before chemotherapeutic agent, cycle 10 days)
30%: Relative remission rate (%) (Example 291, Irinotecan (CPT-11) intraperitoneal injection 260 mg/kg single, compound intravenous injection 150 mg/kg single, 5 h before chemotherapeutic agent, cycle 8 days) | Relative remission rate (%) (Example 322, Fluorouracil 100 (F) and oxaliplatin 5 (O) and irinotecan 100 (I) mg/kg intraperitoneal injection single, compound intraperitoneal injection 300 mg/kg single, 0.5 h before chemotherapeutic agent, cycle 8 days) | Relative remission rate (%) (Example 323, Fluorouracil 100 (F) and oxaliplatin 5 (O) and irinotecan 100 (I) mg/kg intraperitoneal injection single, compound intraperitoneal injection 300 mg/kg single, 4 h before chemotherapeutic agent, cycle 8 days) | Relative remission rate (%) (Example 329, Fluorouracil 100 (F), oxaliplatin 5 (O), irinotecan 100 (I) and tetrahydrofolic acid 100 (L) mg/kg intravenous injection single, compound intravenous injection 100 mg/kg single, 1 h before chemotherapeutic agent, cycle 8 days) | Relative remission rate (%) (Example 330, Fluorouracil 100 (F), oxaliplatin 5 (O), irinotecan 100 (I) and tetrahydrofolic acid 100 (L) mg/kg intravenous injection single, compound intravenous injection 100 mg/kg single, 2 h before chemotherapeutic agent, cycle 8 days) | Relative remission rate (%) (Example 340, Fluorouracil 100 (F), oxaliplatin 5 (O), irinotecan 100 (I) and tetrahydrofolic acid 100 (L) mg/kg intravenous injection single, compound intravenous injection 100 mg/kg single, 20 h before chemotherapeutic agent, cycle 8 days) | Relative remission rate (%) (Example 341, Fluorouracil 100 (F), oxaliplatin 5 (O), irinotecan 100 (I) and tetrahydrofolic acid 100 (L) mg/kg intravenous injection single, compound intravenous injection 100 mg/kg single, 24 h before chemotherapeutic agent, cycle 8 days) | Relative remission rate (%) (Example 360, Gemcitabine (GEM) intravenous injection 120 mg/kg single, compound oral administration 100 mg/kg single, 24 h before chemotherapeutic agent, cycle 8 days)
20%: Relative remission rate (%) (Example 328, Fluorouracil 100 (F), oxaliplatin 5 (O), irinotecan 100 (I) and tetrahydrofolic acid 100 (L) mg/kg intravenous injection single, compound intravenous injection 100 mg/kg single, 0.5 h before chemotherapeutic agent, cycle 8 days)
60%: Relative remission rate (%) (Example 294, Irinotecan (CPT-11) intraperitoneal injection 260 mg/kg single, compound intravenous injection 150 mg/kg single, 8 h before chemotherapeutic agent, cycle 8 days) | Relative remission rate (%) (Example 306, Irinotecan (CPT-11) oral administration 300 mg/kg single, compound intraperitoneal injection 100 mg/kg single, 24 h before chemotherapeutic agent, cycle 10 days) | Relative remission rate (%) (Example 307, Irinotecan (CPT-11) intramuscular injection 260 mg/kg single, compound intramuscular injection 100 mg/kg single, 1 h before chemotherapeutic agent, cycle 7 days) | Relative remission rate (%) (Example 310, Fluorouracil 125 (F) and irinotecan 240 (I) mg/kg intravenous injection single, compound intravenous injection 100 mg/kg single, 4 h before chemotherapeutic agent, cycle 10 days) | Relative remission rate (%) (Example 311, Fluorouracil 125 (F) and irinotecan 240 (I) mg/kg intravenous injection single, compound intravenous injection 100 mg/kg single, 8 h before chemotherapeutic agent, cycle 10 days) | Relative remission rate (%) (Example 324, Fluorouracil 100 (F) and oxaliplatin 5 (O) and irinotecan 100 (I) mg/kg intraperitoneal injection single, compound intraperitoneal injection 300 mg/kg single, 8 h before chemotherapeutic agent, cycle 8 days) | Relative remission rate (%) (Example 334, Fluorouracil 100 (F), oxaliplatin 5 (O), irinotecan 100 (I) and tetrahydrofolic acid 100 (L) mg/kg intravenous injection single, compound intravenous injection 100 mg/kg single, 8 h before chemotherapeutic agent, cycle 8 days) | Relative remission rate (%) (Example 335, Fluorouracil 100 (F), oxaliplatin 5 (O), irinotecan 100 (I) and tetrahydrofolic acid 100 (L) mg/kg intravenous injection single, compound intravenous injection 100 mg/kg single, 10 h before chemotherapeutic agent, cycle 8 days) | Relative remission rate (%) (Example 336, Fluorouracil 100 (F), oxaliplatin 5 (O), irinotecan 100 (I) and tetrahydrofolic acid 100 (L) mg/kg intravenous injection single, compound intravenous injection 100 mg/kg single, 12 h before chemotherapeutic agent, cycle 8 days) | Relative remission rate (%) (Example 345, Fluorouracil 100 (F), oxaliplatin 5 (O), irinotecan 100 (I) and tetrahydrofolic acid 100 (L) mg/kg intraperitoneal injection single, compound oral administration 100 mg/kg single, 6 h before chemotherapeutic agent, cycle 7 days)
reduced to different degrees: feces reduction rates compared with the chemotherapeutic agent group (administered before the chemotherapeutic agent, Table 4 and FIG. 4)
40%: Relative remission rate (%) (Example 290, Irinotecan (CPT-11) intraperitoneal injection 260 mg/kg single, compound intravenous injection 150 mg/kg single, 4 h before chemotherapeutic agent, cycle 8 days) | Relative remission rate (%) (Example 292, Irinotecan (CPT-11) intraperitoneal injection 260 mg/kg single, compound intravenous injection 150 mg/kg single, 6 h before chemotherapeutic agent, cycle 8 days) | Relative remission rate (%) (Example 298, Irinotecan (CPT-11) intraperitoneal injection 260 mg/kg single, compound intravenous injection 150 mg/kg single, 12 h before chemotherapeutic agent, cycle 8 days) | Relative remission rate (%) (Example 299, Irinotecan (CPT-11) intraperitoneal injection 260 mg/kg single, compound intravenous injection 150 mg/kg single, 14 h before chemotherapeutic agent, cycle 8 days) | Relative remission rate (%) (Example 300, Irinotecan (CPT-11) intraperitoneal injection 260 mg/kg single, compound intravenous injection 150 mg/kg single, 16 h before chemotherapeutic agent, cycle 8 days) | Relative remission rate (%) (Example 303, Irinotecan (CPT-11) intraperitoneal injection 260 mg/kg single, compound intravenous injection 150 mg/kg single, 22 h before chemotherapeutic agent, cycle 8 days) | Relative remission rate (%) (Example 304, Irinotecan (CPT-11) intraperitoneal injection 260 mg/kg single, compound intravenous injection 150 mg/kg single, 24 h before chemotherapeutic agent, cycle 8 days) | Relative remission rate (%) (Example 309, Fluorouracil 125 (F) and irinotecan 240 (I) mg/kg intravenous injection single, compound intravenous injection 100 mg/kg single, 0.5 h before chemotherapeutic agent, cycle 10 days) | Relative remission rate (%) (Example 318, Fluorouracil 125 (F) and irinotecan 240 (I) mg/kg intraperitoneal injection single, compound intraperitoneal injection 100 mg/kg single, 1 h before chemotherapeutic agent, cycle 7 days) | Relative remission rate (%) (Example 326, Fluorouracil 100 (F) and oxaliplatin 5 (O) and irinotecan 100 (I) mg/kg intraperitoneal injection single, compound intraperitoneal injection 300 mg/kg single, 24 h before chemotherapeutic agent, cycle 8 days) | Relative remission rate (%) (Example 333, Fluorouracil 100 (F), oxaliplatin 5 (O), irinotecan 100 (I) and tetrahydrofolic acid 100 (L) mg/kg intravenous injection single, compound intravenous injection 100 mg/kg single, 6 h before chemotherapeutic agent, cycle 8 days) | Relative remission rate (%) (Example 337, Fluorouracil 100 (F), oxaliplatin 5 (O), irinotecan 100 (I) and tetrahydrofolic acid 100 (L) mg/kg intravenous injection single, compound intravenous injection 100 mg/kg single, 14 h before chemotherapeutic agent, cycle 8 days) | Relative remission rate (%) (Example 338, Fluorouracil 100 (F), oxaliplatin 5 (O), irinotecan 100 (I) and tetrahydrofolic acid 100 (L) mg/kg intravenous injection single, compound intravenous injection 100 mg/kg single, 16 h before chemotherapeutic agent, cycle 8 days) | Relative remission rate (%) (Example 339, Fluorouracil 100 (F), oxaliplatin 5 (O), irinotecan 100 (I) and tetrahydrofolic acid 100 (L) mg/kg intravenous injection single, compound intravenous injection 100 mg/kg single, 18 h before chemotherapeutic agent, cycle 8 days) | Relative remission rate (%) (Example 346, Fluorouracil 100 (F), oxaliplatin 5 (O), irinotecan 100 (I) and tetrahydrofolic acid 100 (L) mg/kg intraperitoneal injection single, compound oral administration 100 mg/kg single, 24 h before chemotherapeutic agent, cycle 7 days)
50%: Relative remission rate (%) (Example 288, Irinotecan (CPT-11) intraperitoneal injection 260 mg/kg single, compound intravenous injection 150 mg/kg single, 2 h before chemotherapeutic agent, cycle 8 days) | Relative remission rate (%) (Example 289, Irinotecan (CPT-11) intraperitoneal injection 260 mg/kg single, compound intravenous injection 150 mg/kg single, 3 h before chemotherapeutic agent, cycle 8 days) | Relative remission rate (%) (Example 293, Irinotecan (CPT-11) intraperitoneal injection 260 mg/kg single, compound intravenous injection 150 mg/kg single, 7 h before chemotherapeutic agent, cycle 8 days) | Relative remission rate (%) (Example 296, Irinotecan (CPT-11) intraperitoneal injection 260 mg/kg single, compound intravenous injection 150 mg/kg single, 10 h before chemotherapeutic agent, cycle 8 days) | Relative remission rate (%) (Example 297, Irinotecan (CPT-11) intraperitoneal injection 260 mg/kg single, compound intravenous injection 150 mg/kg single, 11 h before chemotherapeutic agent, cycle 8 days) | Relative remission rate (%) (Example 301, Irinotecan (CPT-11) intraperitoneal injection 260 mg/kg single, compound intravenous injection 150 mg/kg single, 18 h before chemotherapeutic agent, cycle 8 days) | Relative remission rate (%) (Example 302, Irinotecan (CPT-11) intraperitoneal injection 260 mg/kg single, compound intravenous injection 150 mg/kg single, 20 h before chemotherapeutic agent, cycle 8 days) | Relative remission rate (%) (Example 308, Irinotecan (CPT-11) intravenous injection 260 mg/kg single, compound oral administration 100 mg/kg single, 12 h before chemotherapeutic agent, cycle 7 days) | Relative remission rate (%) (Example 313, Fluorouracil 125 (F) and irinotecan 240 (I) mg/kg intravenous injection single, compound intravenous injection 100 mg/kg single, 24 h before chemotherapeutic agent, cycle 10 days) | Relative remission rate (%) (Example 319, Fluorouracil 125 (F) and irinotecan 240 (I) mg/kg intraperitoneal injection single, compound intraperitoneal injection 100 mg/kg single, 12 h before chemotherapeutic agent, cycle 7 days) | Relative remission rate (%) (Example 325, Fluorouracil 100 (F) and oxaliplatin 5 (O) and irinotecan 100 (I) mg/kg intraperitoneal injection single, compound intraperitoneal injection 300 mg/kg single, 12 h before chemotherapeutic agent, cycle 8 days) | Relative remission rate (%) (Example 331, Fluorouracil 100 (F), oxaliplatin 5 (O), irinotecan 100 (I) and tetrahydrofolic acid 100 (L) mg/kg intravenous injection single, compound intravenous injection 100 mg/kg single, 3 h before chemotherapeutic agent, cycle 8 days) | Relative remission rate (%) (Example 332, Fluorouracil 100 (F), oxaliplatin 5 (O), irinotecan 100 (I) and tetrahydrofolic acid 100 (L) mg/kg intravenous injection single, compound intravenous injection 100 mg/kg single, 4 h before chemotherapeutic agent, cycle 8 days) | Relative remission rate (%) (Example 355, Fluorouracil 100 (F), oxaliplatin 5 (O), irinotecan 200 (I) and tetrahydrofolic acid 100 (L) mg/kg oral administration single, compound subcutaneous injection 100 mg/kg single, 0.5 h before chemotherapeutic agent, cycle 7 days) | Relative remission rate (%) (Example 356, Fluorouracil 100 (F), oxaliplatin 5 (O), irinotecan 200 (I) and tetrahydrofolic acid 100 (L) mg/kg oral administration single, compound subcutaneous injection 100 mg/kg single, 4 h before chemotherapeutic agent, cycle 7 days)
